Test results as given in patent US6774123B1, “Methods and compositions for inactivating viruses” (priority 1998, dated 2004).

Tests used:
[1] = tested on: Porcine Parvovirus (PPV); experiment: Inactivation of porcine parvovirus (PPV), TCID50 titer on PT-1 cells; assay type: cell-based; settings: dropped from 7.1 logs, 3 hours, room temperature, dimer 0.1%, detergent = 1% Tween 80, 0.3% TNBP (FIG. 3)
Description: PPV is a non-enveloped virus; it is known to be inactivated with ethyleneimine dimer. The ability of ethyleneimine dimer to inactivate PPV in the presence of a solvent-detergent mixture was determined as follows.
A detergent stock solution (1% Tween 80, 0.3% TNBP in 0.1 M MOPS, 50 mM NaCl, pH 7.0) was prepared. A 5% dimer stock solution was prepared with 250 μl of 0.1 M MOPS, NaCl 50 mM, pH 7.0, and 12.5 μl dimer (ethyleneimine dimer, Dalton Chemical Laboratories, Inc., lot number LB-4-69A-03319). In addition, a quenching solution with a sodium thiosulphate concentration of 0.1M in 0.1 M MOPS, pH 7.0, was prepared.
(a) 9 ml 0.1 M MOPS, 50 mM NaCl, pH 7.0 was combined with 200 μl dimer stock solution. 1.0 ml PPV (PPV stock #1 filtered through 0.22μ filter) was added. The concentration of dimer in the resulting solution was 0.1%. The mixture was incubated at room temperature for a given period of time (0-3 hours). After the given time period, 1.85 ml of the solution was removed, and 0.15 ml quenching solution was added. Quenching occurred over a period of 30 minutes at room temperature. The concentration of sodium thiosulphate in the final solution was […].
(b) 9 ml detergent stock solution was combined with 1.0 ml PPV. The mixture was incubated for 0-3 hours at room temperature. A 2 ml aliquot was removed at each time point for assay. […]

[2] = tested on: bacteriophage MS2; experiment: Kinetics of bacteriophage MS2 infectivity inactivation; assay type: cell-based; settings: 1 mM trimer, 23° C., pH 7.13, after 30 minutes of incubation (FIG. 1)
Description: Ethyleneimine trimer is known to inactivate the infectivity of bacteriophage MS2. The ability of the trimer to inactivate the infectivity of MS2 in the presence of TNBP and Tween 80 was determined as follows.
A stock of bacteriophage MS2 (ATCC number 15597-B1) was prepared according to conventional procedures (D. L. Rogerson and G. Rushizky, Analytical Biochemistry 67: 675-678 (1975)). Purification was performed by sedimentation of bacteriophage in the presence of 6% polyethylene glycol (PEG 8000, USB) as described in K. Yamamoto and B. Alberts, Virology 40: 734-744 (1970).
Purified phage were suspended in 0.15 M NaCl solution (final bacteriophage stock titer was 5×10^13 pfu/ml) and stored at 4° C. The infectivity (titer) of phage suspension was determined by conventional bilayer technique on LB agar with the F^+ strain of Escherichia coli C-3000 (ATCC number 15597).
Ethyleneimine trimer was prepared as described above. […]
Aliquots of the reaction mixture incubated at 23° C. were taken at five defined time intervals. MS2 infectivity inactivation (log S0/St, where S0 and St are the infectivity (titer) of the suspension before and t min after the start of inactivation) was determined at these five points.

Compound	titer of the virus (TCID50) after treatment [1]	MS2 infectivity inactivation (log S0/St), trimer alone compared with trimer plus solvent-detergent [2]
NCCN1CC1 [dimer, ethyleneimine dimer]	3.2 logs	
NCCNCCN1CC1 [trimer, ethyleneimine trimer]		essentially the same infectivity inactivation
